# Values of other authors as cited in patent US11638429B2, “Hypochlorous acid disinfectant and its production method” (SUPER AQUA INTERNATIONAL CO., LTD., priority 2020, dated 2023).
# Test system: coliform
# Conditions: versus hypochlorite ion (CLO—); FIG. 2, U.S. EPA
smiles,measurement,value
"OCl [hypochlorous acid (HCLO), hypochlorous acid]",sterilization of hypochlorous acid (HCLO) relative to hypochlorite ion (CLO—),80 times
